Test results from PubChem BioAssay (NCI).
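1) Cells in 96-well plates. 2) Compound, 48 h, 5 concentrations. 3) Linear interpolation between surrounding doses. 4) Unreached endpoint = highest concentration. Abbreviation: GI50, concentration required for 50% inhibition of growth. TGI denotes the concentration required for complete inhibition of growth.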

Columns and labels:
Experiment in all cases: DTP human tumour cell line panel, 48 h
OVCAR-8 ovarian = system: OVCAR-8 ovarian
SK-MEL-2 melanoma = system: SK-MEL-2 melanoma
HL-60(TB) leukemia = system: HL-60(TB) leukemia
HOP-62 NSCLC = system: HOP-62 NSCLC
UACC-62 melanoma = system: UACC-62 melanoma
HOP-92 NSCLC = system: HOP-92 NSCLC
PC-3 prostate = system: PC-3 prostate
EKVX NSCLC = system: EKVX NSCLC
ACHN renal = system: ACHN renal
A549 NSCLC = system: A549 NSCLC

Structure (SMILES) | GI50 (OVCAR-8 ovarian) [µM] | TGI (OVCAR-8 ovarian) [µM] | GI50 (SK-MEL-2 melanoma) [µM] | TGI (SK-MEL-2 melanoma) [µM] | GI50 (HL-60(TB) leukemia) [µM] | TGI (HL-60(TB) leukemia) [µM] | GI50 (HOP-62 NSCLC) [µM] | TGI (HOP-62 NSCLC) [µM] | GI50 (UACC-62 melanoma) [µM] | TGI (UACC-62 melanoma) [µM] | GI50 (HOP-92 NSCLC) [µM] | TGI (HOP-92 NSCLC) [µM] | GI50 (PC-3 prostate) [µM] | TGI (PC-3 prostate) [µM] | GI50 (EKVX NSCLC) [µM] | TGI (EKVX NSCLC) [µM] | GI50 (ACHN renal) [µM] | TGI (ACHN renal) [µM] | GI50 (A549 NSCLC) [µM] | TGI (A549 NSCLC) [µM]
Nc1ccccc1C#C/C=C\C#Cc1ccccc1C(F)(F)F | 1.32 | 20.6 | 21.8 | > 100 | 1.04 | > 27.7 | 0.588 | 18.7 | 0.255 | 3.04 | 21.5 | 48 | 4.41 | 45.1 | 0.895 | 15.2 | 0.323 | 15.8 | 0.722 | 15.5
CCN(Cc1cccc(OC)c1)c1ccc(CO)c(Cl)c1 | 12.6 | 45.7 | 2.81 | 21.3 | 14.6 | 51.7 | 3.23 | 39.2 | 0.0839 | 0.48 | 2.11 | 20.5 | 19.8 | 74.3 | 19.9 | 71.3 | 26.5 | 96.8 | 2.06 | 27.7
O=c1cccc(C#CC#C[C@H]2O[C@@H]2CO)o1 | 0.341 | 1.43 | 5.53 | > 21 | 1.47 | > 100 | 0.423 | 1.54 | 0.209 | 0.531 | 0.285 | 0.531 | 0.664 | 2.01 | 1.97 | 4.18 | 0.322 | 0.985 | 1.77 | 3.64
Cc1ccc2c(c1)nc(C(=O)c1ccco1)c(C(F)(F)F)[n+]2[O-] | > 100 | > 100 | > 100 | > 100 | 51.4 | > 100 | > 100 | > 100 | 89.1 | > 100 | 40.1 | > 100 | 50.2 | > 100 | 57.5 | > 100 | > 100 | > 100 | > 100 | > 100
CC1=C([Se]CC(OC(=O)CC[Se]c2ccccc2)C(=O)NCCCCCC(=O)OCc2ccccc2)C(=O)c2ccccc2C1=O (stereo not given) | 2.44 | 7.16 | 3.32 | 9.96 | 2.75 | 8.25 | 1.87 | 4.32 | 1.83 | 4.39 | 2.46 | 5.91 | 2.26 | 12.4 | 2.96 | 29.2 | 3.18 | 13.8 | 2.56 | 6.72
C/C(=N/S(=O)(=O)c1ccc(Cl)c(Cl)c1)OCC(C)(C)C |  | > 100 |  | > 100 |  | > 100 |  | > 100 |  | > 100 |  | > 100 |  | > 100 |  | > 100 |  | > 100 |  | > 100
CC[C@]1(O)CC2CN(CCc3c([nH]c4ccccc34)[C@@](C(=O)OC)(c3cc4c(cc3OC)N(C)[C@H]3[C@@](O)(C(=O)OC)[C@H](OC(C)=O)[C@]5(CC)C=CCN6CC[C@]43[C@@H]65)C2)C1 (stereo not given in full) | < 0.005 | > 34.6 | < 0.005 | 6.95 | < 0.005 | < 0.005 | < 0.005 | 9.89 | < 0.005 | 8.91 | < 0.005 | 0.119 | < 0.005 | 12.3 | 0.00956 | > 50 | 0.076 | > 50 | < 0.005 | > 50
CC(=O)OC[C@H]1O[C@@H](n2ccc(=O)[nH]c2=O)[C@H](OC(C)=O)[C@@H]1OC(C)=O | > 100 | > 100 | > 100 | > 100 | > 100 | > 100 | > 100 | > 100 | > 100 | > 100 | > 100 | > 100 | > 100 | > 100 | > 100 | > 100 | > 100 | > 100 | > 100 | > 100
COc1ccccc1-[n+]1cc(-c2ccc(-c3ccccc3)cc2)n2c1CCCCC2 | 0.528 | 15.9 | 0.237 | 2.22 | 0.0429 | 1.01 | 1.29 | 15.4 | 0.159 | 1.8 | 0.184 | 1.97 | 0.228 | 8.95 | 0.152 | 14.4 | 2.45 | 11.3 | 0.51 | 16.7
c1ccc(Cc2nc3ccc(Nc4ncnc5ccccc45)cc3[nH]2)cc1 | > 25 | > 25 | > 25 | > 25 | 20 | > 25 | > 25 | > 25 | > 25 | > 25 | 9.26 | > 25 | > 25 | > 25 | 9.4 | > 25 | 14.8 | > 25 | > 25 | > 25
